These results are taken from patent US10611760B2, “Therapeutic compounds as inhibitors of the orexin-1 receptor” (C4X Discovery Limited, priority 2014, dated 2020).

What all share (type): cell-based
The target of one test is T1, hOX2R (Homo sapiens, UniProt O43614).
T1 sequence (O43614 1-444): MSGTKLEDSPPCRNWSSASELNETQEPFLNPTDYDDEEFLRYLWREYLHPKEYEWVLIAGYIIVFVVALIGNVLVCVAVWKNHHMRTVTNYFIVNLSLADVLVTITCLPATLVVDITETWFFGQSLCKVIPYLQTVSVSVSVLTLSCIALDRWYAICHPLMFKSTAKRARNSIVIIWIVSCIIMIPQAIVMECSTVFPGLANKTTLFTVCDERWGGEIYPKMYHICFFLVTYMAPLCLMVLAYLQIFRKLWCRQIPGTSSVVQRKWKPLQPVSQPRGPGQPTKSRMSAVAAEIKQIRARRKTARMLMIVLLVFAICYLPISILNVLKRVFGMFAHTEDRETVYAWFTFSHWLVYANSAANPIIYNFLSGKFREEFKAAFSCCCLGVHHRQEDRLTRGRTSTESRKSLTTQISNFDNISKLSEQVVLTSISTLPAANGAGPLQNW
Description: Intracellular calcium measurements using division-arrested cells, OX2. The conditions noted are these: agonist orexin B at 2×EC50, * = single experiment, otherwise average of at least two, read-out: pIC50 OX2 (converted). As to the method: (§1) Intracellular Calcium Measurements Using Division-arrested Cells (Table 1):
(§2) Test compounds are prepared as 10 mM stock solutions in DMSO, then serially diluted in half log concentrations with DMSO followed by dilution with assay buffer (HBSS (Sigma-Aldrich, H8264) containing 20 mM HEPES (Sigma-Aldrich, H4034), 0.1% (w/v) bovine serum albumin and adjusted to pH 7.4) to a top final assay concentration of 10 μM.
(§3) Human OX1 (CT-A474) and human OX2 (CT-A475) receptor-expressing division-arrested cells are plated into 384 well black, clear bottom, cell-bind plates at a seeding density of 10,000 cells/50 μL growth media. The seeded plates are incubated at 37° C. in air supplemented with 5% CO2 for 16 hrs.
(§4) The media is removed and replaced with 30 μL/well of cell loading buffer (a vial of Calcium 5 is solubilized in 22 mL of assay buffer to which a freshly prepared 250 mM solution of probenecid in 1:1 1M NaOH to assay buffer (200 μL) is added) and the cells incubated for 1 hr at 37° C. The serially diluted test compounds (10 μL/well) are added to the plate, which is then incubated for 10 mins and placed in a FlexStation III reader.

The target of test [1] is T2, hOX1R (Homo sapiens, UniProt O43613).
T2 sequence (O43613 1-425): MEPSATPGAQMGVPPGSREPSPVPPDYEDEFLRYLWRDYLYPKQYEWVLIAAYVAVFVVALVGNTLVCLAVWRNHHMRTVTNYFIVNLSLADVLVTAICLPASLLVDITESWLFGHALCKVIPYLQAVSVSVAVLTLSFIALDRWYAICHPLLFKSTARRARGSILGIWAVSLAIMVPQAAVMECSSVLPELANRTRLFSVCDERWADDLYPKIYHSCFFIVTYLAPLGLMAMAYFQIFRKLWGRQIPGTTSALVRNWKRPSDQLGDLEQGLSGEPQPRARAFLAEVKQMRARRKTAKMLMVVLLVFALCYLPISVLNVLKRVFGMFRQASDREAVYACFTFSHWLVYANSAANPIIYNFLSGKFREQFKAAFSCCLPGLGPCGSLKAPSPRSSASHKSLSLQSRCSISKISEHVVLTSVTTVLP
Nature of the test: Intracellular calcium measurements using division-arrested cells, OX1. The conditions noted are these: agonist orexin A at 2×EC50, * = single experiment, otherwise average of at least two, read-out: pIC50 OX1 (converted). Here is the method: as §1, §2, §3, §4

Test [2] has as its target T2, hOX1R. Nature of the test: Intracellular calcium measurements using stable-replicating cells, Method B (CHO cells, FLIPR Tetra), OX1. The note with it: orexin A at EC75, read-out: pIC50 OX1 (converted). As to the method: Intracellular Calcium Measurements Using Stable-replicating Cells:
Human OX1 or human OX2 receptor expressing CHO cells are plated into 384 well black, clear bottom, CellBIND plates at a seeding density of 10,000 cells/75 μL growth media. The seeded plates are incubated at 37° C. in air supplemented with 5% CO2 overnight.
The next day media is removed and replaced with 30 μL/well of cell loading buffer (a vial of Calcium 5 is solubilized in 20 mL of assay buffer) and the cells incubated for 1 hr at 37° C. The serially diluted test compounds (10 μL/well) are added to the cell plate by the FLIPR Tetra and the addition is monitored for 5 mins by the instrument. The cell plate is then removed and incubated for additional 25 mins in a humidified incubator at […] prior to being placed back into the FLIPR Tetra. Finally 10 μL of orexin A in assay buffer +0.1% (w/v) bovine serum albumin is dispensed by the FLIPR Tetra at an EC75 concentration determined for each assay run. Fluorescence is measured at excitation and emission wavelengths of 485 nm and 525 nm respectively and data analyzed using GraphPad Prism for the EC75 value of orexin A and Aplus to determine an IC50 value for each test compound.

For `CC[C@@H](CNc1ccc(Cl)cn1)N(C)C(=O)c1cc(F)ccc1-n1nccn1` [Example 18, (S)—N-(1-((5-chloropyridin-2-yl)amino)butan-2-yl)-5-fluoro-N-methyl-2-(2H-1,2,3-triazol-2-yl)benzamide], the IC50 was above 10000 nM on hOX2R and 79.4 nM on hOX1R [1].

`CC[C@@H](CNc1ccc(Cl)cn1)N(C)C(=O)c1cc(N(C)C)ccc1-n1nccn1` [Example 23, (S)—N-(1-((5-chloropyridin-2-yl)amino)butan-2-yl)-5-(dimethylamino)-N-methyl-2-(2H-1,2,3-triazol-2-yl)benzamide]: the IC50 at hOX2R was 2510 nM; at hOX1R [1], 25.1 nM.

Take `CC[C@@H](CNc1ccc(Cl)cn1)NC(=O)c1cc(Cl)ccc1-n1nccn1` [Example 25, (S)-5-chloro-N-(1-((5-chloropyridin-2-yl)amino)butan-2-yl)-2-(2H-1,2,3-triazol-2-yl)benzamide]: the IC50 is above 10000 nM on hOX2R and 631 nM at hOX1R [1].

For `Cc1nc(C(=O)N(C)[C@H](CNc2ccc(Cl)cn2)C(C)C)c(-c2ccccc2)s1` [Example 26, (S)—N-(1-((5-chloropyridin-2-yl)amino)-3-methylbutan-2-yl)-N,2-dimethyl-5-phenylthiazole-4-carboxamide], the IC50 on hOX2R was 2000 nM; at hOX1R [1], 31.6 nM.

For the molecule `CC(C)[C@@H](CNc1ccc(Cl)cn1)N(C)C(=O)c1c(-c2ccccc2)[nH]c2ccccc12` [Example 27, (S)—N-(1-((5-chloropyridin-2-yl)amino)-3-methylbutan-2-yl)-N-methyl-2-phenyl-1H-indole-3-carboxamide], the IC50 at hOX2R is 501 nM; on hOX1R [1], 158 nM.

Take `CC(C)[C@@H](CNc1ccc(Cl)cn1)N(C)C(=O)c1ccccc1-n1nccn1` [Example 28, (S)—N-(1-((5-chloropyridin-2-yl)amino)-3-methylbutan-2-yl)-N-methyl-2-(2H-1,2,3-triazol-2-yl)benzamide]: the IC50 at hOX2R is above 10000 nM; at hOX1R [1] it was 200 nM.

As for `Cc1cc(C)nc(OC[C@H](C(C)C)N(C)C(=O)c2ccccc2-c2ccccc2)n1` [Example 30, (S)—N-(1-((4,6-dimethylpyrimidin-2-yl)oxy)-3-methylbutan-2-yl)-N-methyl-[1,1′-biphenyl]-2-carboxamide], the IC50 at hOX2R is above 5010 nM; at hOX1R [1] it was 1580 nM.

On to `CC(C)[C@@H](COc1ccc(Cl)cn1)N(C)C(=O)c1ccccc1-c1ccccc1` [Example 34, (S)—N-(1-((5-chloropyridin-2-yl)oxy)-3-methylbutan-2-yl)-N-methyl-[1,1′-biphenyl]-2-carboxamide], for which the IC50 at hOX2R was above 3160 nM; on hOX1R [1], 200 nM.

Take `CC(C)[C@@H](CNc1nccc(-c2ccccc2)n1)N(C)C(=O)c1ccccc1-c1ccccc1` [Example 35, (S)—N-methyl-N-(3-methyl-1-((4-phenylpyrimidin-2-yl)amino)butan-2-yl)-[1,1′-biphenyl]-2-carboxamide]: the IC50 on hOX2R is 2000 nM; on hOX1R [1] it was 79.4 nM.

With `CC(C)[C@@H](CNc1nc2ccccc2n1C)N(C)C(=O)c1ccccc1-c1ccccc1` [Example 38, (S)—N-methyl-N-(3-methyl-1-((1-methyl-1H-benzo[d]imidazol-2-yl)amino)butan-2-yl)-[1,1′-biphenyl]-2-carboxamide], the IC50 is above 3980 nM on hOX2R and 79.4 nM at hOX1R [1].

Consider `CC[C@@H](CNc1cnc(C(F)(F)F)cn1)N(C)C(=O)c1cc(Cl)ccc1-n1nccn1` [Example 40, (S)-5-chloro-N-methyl-2-(2H-1,2,3-triazol-2-yl)-N-(1-((5-(trifluoromethyl)pyrazin-2-yl)amino)butan-2-yl)benzamide], for which the IC50 was 2510 nM on hOX2R and 15.8 nM at hOX1R [1].

For the molecule `CC[C@@H](CNc1ccc(C(F)(F)F)cn1)N(C)C(=O)c1nc(C)ccc1-n1nccn1` [Example 48, (S)—N,6-dimethyl-3-(2H-1,2,3-triazol-2-yl)-N-(1-((5-(trifluoromethyl)pyridin-2-yl)amino)butan-2-yl)picolinamide], the IC50 was 2510 nM on hOX2R and 12.6 nM at hOX1R [1].

As to `Cc1cc(C(=O)N(C)[C@H](CNc2ccc(Cl)cn2)C(C)C)c2ccccc2n1` [Example 51, (S)—N-(1-((5-chloropyridin-2-yl)amino)-3-methylbutan-2-yl)-N,2-dimethylquinoline-4-carboxamide], the IC50 at hOX2R is above 10000 nM; on hOX1R [1], 631 nM.

Turning to `CC(C)[C@@H](CNc1ccc(Cl)cn1)N(C)C(=O)c1ccccc1OC(F)(F)F` [Example 52, (S)—N-(1-((5-chloropyridin-2-yl)amino)-3-methylbutan-2-yl)-N-methyl-2-(trifluoromethoxy)benzamide], the IC50 was above 7940 nM at hOX2R and 1000 nM at hOX1R [1].

Consider `CC[C@@H](CNc1ccc(C(F)(F)F)nc1)N(C)C(=O)c1cc(Cl)ccc1-n1nccn1` [Example 54, (S)-5-chloro-N-methyl-2-(2H-1,2,3-triazol-2-yl)-N-(1-((6-(trifluoromethyl)pyridin-3-yl)amino)butan-2-yl)benzamide], for which the results for the IC50 at hOX2R and on hOX1R [1] were 1260 nM and 20 nM, respectively.

In the case of `CC(C)[C@@H](CNC(=O)c1ccc(F)cc1)N(C)C(=O)c1ccccc1-c1ccccc1` [Example 56, (S)—N-(1-(4-fluorobenzamido)-3-methylbutan-2-yl)-N-methyl-[1,1′-biphenyl]-2-carboxamide], the IC50 on hOX2R was above 3160 nM; on hOX1R [1] it was 126 nM.

With `CC(C)[C@@H](CNC(=O)Nc1ccccc1)N(C)C(=O)c1ccccc1-c1ccccc1` [Example 58, (S)—N-methyl-N-(3-methyl-1-(3-phenylureido)butan-2-yl)-[1,1′-biphenyl]-2-carboxamide], the results for the IC50 at hOX2R and on hOX1R [1] were above 5010 nM and 126 nM, respectively.

For `CC(C)[C@@H](CNc1ccc(Cl)cc1)N(C)C(=O)c1ccccc1-c1ccccc1` [Example 59, (S)—N-(1-((4-chlorophenyl)amino)-3-methylbutan-2-yl)-N-methyl-[1,1′-biphenyl]-2-carboxamide], the figures for the IC50 at hOX2R and on hOX1R [1] were above 6310 nM and 158 nM, respectively.

Turning to `Cc1ccc(-n2nccn2)c(C(=O)N(C)[C@H](CNc2cnc(C(F)(F)F)cn2)C(C)C)n1` [Example 67, (S)—N,6-dimethyl-N-(3-methyl-1-((5-(trifluoromethyl)pyrazin-2-yl)amino)butan-2-yl)-3-(2H-1,2,3-triazol-2-yl)picolinamide], the IC50 on hOX1R [2] was 7.94 nM.

Take `CC[C@@H](CNc1cnc(C(F)(F)F)cn1)N(CC)C(=O)c1nc(C)ccc1-n1nccn1` [Example 70, (S)—N-ethyl-6-methyl-3-(2H-1,2,3-triazol-2-yl)-N-(1-((5-(trifluoromethyl)pyrazin-2-yl)amino)butan-2-yl)picolinamide]: the IC50 on hOX1R [2] is 1.58 nM.

Regarding `CC[C@@H](CNc1ncc2ccccc2n1)N(CC)C(=O)c1nc(C)ccc1-n1nccn1` [Example 72, (S)—N-ethyl-6-methyl-N-(1-(quinazolin-2-ylamino)butan-2-yl)-3-(2H-1,2,3-triazol-2-yl)picolinamide], the IC50 on hOX1R [2] is 1.58 nM.
